Results as given in patent US8518383B2, “Oral care products comprising buffer systems for improved mineralization/remineralization benefits” (Wm. Wrigley Jr. Company, priority 2006, dated 2013).

Experiment: in-vitro pH cycling model, enamel microhardness (remineralization efficacy)
Set-up: species or system human
Experimental: The purpose of this test was to evaluate in-vitro efficacy of soluble calcium and phosphate combinations. Testing was conducted at the University of Indiana. Enamel specimens (3×3×3 mm diameter window) were removed from extracted human teeth and mounted on acrylic rods. The enamel surface was ground and polished using alumina slurry, rinsed with deionized water, and air dried. Artificial lesions were then formed in the enamel specimens by a 96 hr immersion in a partially saturated HAP acid buffer consisting of 0.1 mM lactic acid and 0.2 wt % Carbopol C907 adjusted to a pH of 5. Four baseline indentations per specimen were placed with a Vickers diamond at a 200 g load for 15 seconds and the indentation lengths had to be in a range from 25-45 microns. Enamel specimens (N=18 per treatment) were then cycled daily through a series of solutions repeated over an 8 day time period. Artificial saliva, acid challenge and pooled whole saliva solutions were prepared fresh daily. After treatment, the enamel microhardness was assessed and the difference between initial and final microhardness was calculated as a measure of remineralization efficacy. The data was then statistically analyzed with overall treatment comparisons calculated using an ANOVA model at α=0.05. Post ANOVA pairwise comparisons were made using a 2 tailed student t-test.
Artificial saliva with active treatments (1 hr, 4× daily)
Saliva treatment (0.05 ppm fluoride, 30 min daily)
Acid challenge (partially saturated HAP acid/carbopol buffer, Ph 5.0, 20 min., 3× daily)
Saliva film in a humid environment (overnight)
Comparison of Ca-citrate and Ca-citrate+Phosphate blend vs. Ca-lactate (see FIG. 1)

SMILES: O=C([O-])CC(O)(CC(=O)[O-])C(=O)[O-].O=C([O-])CC(O)(CC(=O)[O-])C(=O)[O-].[Ca+2].[Ca+2].[Ca+2] [CaCit (811), Ca Citrate]
- ΔVSMH (difference between initial and final enamel microhardness) (Ca 811 ppm (0.38% salt) in artificial saliva, 1 hr 4x daily, 8 day pH cycling, mean, N=18): 29.65
- ΔVSMH (difference between initial and final enamel microhardness) (Ca 811 ppm (0.38% salt) in artificial saliva; 1 hr 4x daily, 8 day pH cycling; mean, N=18; 0.38%)): 29.55
- enamel rehardening, comparison in words (pairwise comparison of treatment groups, see value): higher enamel rehardening over Ca-lactate

SMILES: CC(O)C(=O)[O-].CC(O)C(=O)[O-].O.O.O.O.O.[Ca+2] (stereo not drawn) [CaLac (1500), Ca Lactate 5-hydrate]
- ΔVSMH (difference between initial and final enamel microhardness) (Ca 1500 ppm in artificial saliva, 1 hr 4x daily, 8 day pH cycling, mean, N=18): 5.99

SMILES: CC(O)C(=O)[O-].CC(O)C(=O)[O-].[Ca+2] (stereo not drawn) [Ca-lactate]
- dose response of enamel rehardening (500 and 1500 ppm): No significant dose response

SMILES: CC(O)C(=O)[O-].CC(O)C(=O)[O-].O.O.O.O.O.[Ca+2] (stereo not drawn) [CaLac (500), Ca Lactate 5-hydrate]
- ΔVSMH (difference between initial and final enamel microhardness) (Ca 500 ppm in artificial saliva, 1 hr 4x daily, 8 day pH cycling, mean, N=18): 4.78
